Experiment [1] relates to antibody core fucosylation (CHO DG44 cell line producing humanized IgG1 anti-CD70 antibody h1F6). Briefly: Inhibition of antibody core fucosylation in CHO DG44 cell culture producing h1F6. It is filed as cell-based. As to conditions: day 5, CHO DG44 h1F6; for Inhibition at 50 μM: 50 μM fucose analog; for inhibition at 1000 µM / Inhibition at 1 mM: 1 mM fucose analog. Here is the method:
Fucose analogs have been evaluated for their effect on antibody core fucosylation at concentrations of 50 μM and 1 mM generally as described in Published US Patent Application 2009-0317869. Briefly, the protocol was as follows: A CHO DG44 cell line producing a humanized IgG1 anti-CD70 monoclonal antibody, h1F6 (see International Patent Publication WO 06/113909) was cultured at 7.5×10^5 cells per mL in 2 mLs of CHO culture media at 37°, 5% CO2 and shaking at 100 RPM in a 6 well tissue culture plate. Media was supplemented with insulin like growth factor (IGF), penicillin, streptomycin and either 1 mM or 50 μM of the fucose analog. On day 5 post inoculation, the culture was centrifuged at 13000 RPM for 5 minutes to pellet the cells; antibodies were then purified from supernatant.
Antibody purification was performed by applying the conditioned media to protein A resin pre-equilibrated with 1× phosphate buffered saline (PBS), pH 7.4. After washing resin with 20 resin bed volumes of 1×PBS, antibodies were eluted with 5 resin bed volumes of Immunopure IgG elution buffer (Pierce Biotechnology, Rockford, Ill.). A 10% volume of 1M Tris pH 8.0 was added to neutralize the eluted fraction.

For experiment [2], the system named is LP-1, a human multiple myeloma cell line (IgG fucosylation). Briefly: Fucosylation of LP-1-generated IgG, AOL dot blot. In kind it is cell-based. As to conditions: for activity at 100 µM: Homo sapiens, LP-1, 120 h, read-out: % of control fucosylated IgG value; for activity at 100 µM / % of control fucosylated IgG value: 5 days, AOL dot blot, multiple samples separated by semicolon; for activity at 100 µM / % of control fucosylated IgG value / inhibition of IgG fucosylation in human cells (decrease in AOL signal, dot blot): LP-1 cells; for % of control fucosylated IgG value / inhibition of IgG fucosylation in human cells (decrease in AOL signal, dot blot) / dot blot results (% fucose signal of control): 100 μM; for dot blot results (% fucose signal of control): LP-1-generated IgG. The procedure:
To further evaluate the activities of different fucose analogs, 48 different fucose analogs and other four glycosylation inhibitors were tested for their ability to affect the fucosylation the LP-1-generated IgG. LP-1 cells (250,000 cells/mL, 3 mL per compound in 6-well plates) were incubated with 100 μM of each fucose analog for 5 days at 37° C. with a humidified atmosphere of 5% CO2 in IgG-depleted tissue culture media (90% RPMI with 10% IgG-depleted heat inactivated FBS). The IgG was isolated as described above using only 0.5 mL of MabSelect™ protein A resin slurry and one spin cup per sample with elution in 400 μL of IgG elution buffer into 25 μL of 9 M Tris buffer, pH 9. The eluates were concentrated to 10-20 μL per sample and 2 μL of each of the concentrated eluates were dotted onto a nitrocellulose membrane and stained with Ponceau S to estimate and adjust the sample loading for AOL staining. From this estimation of total protein in each sample, approximately 0.5 μg of each sample was dotted onto the membrane, air-dried, and stained with Ponceau S. An image of this stained membrane was captured using an Alpha Innotech FlourChem® Q system. The membrane was then blocked with 5% Bovine Serum Albumin (BSA) in Tris Buffered Saline (TBS) for 1 hr, washed with TBST (TBS with […]) 3 times and then incubated with 5 μg/ml biotinylated-AOL for 1 hr. The membrane was washed again with TBST 3 times, followed by Streptavidin-HRP incubation for 30 min and final washes with TBST 3 times.

Setting [3] is: 120 h, read-out: Inhibition at 50 μM.
[4] abbreviates: CHO-DG44, 120 h, read-out: Inhibition at 50 μM.

Where two headings read alike, the source gives them in different places.

For `CC(=O)OC(CC(=O)O)[C@@H](OC(C)=O)[C@@H](OC(C)=O)[C@@H](C=O)OC(C)=O` (some centres unmarked) [SGD-1959, 5-carboxymethyl arabinose tetraacetate], the Inhibition (as a rule, the share of the control response that was lost under treatment) at 50 μM in experiment [1] (setting [3]) worked out at 30%. The inhibition (commonly the relative decrease from the control value, in per cent) at 1000 µM in experiment [1] (120 h) is over 80%. Further, the activity at 100 µM in experiment [2] was 94%.

In the case of `O[C@H]1[C@H](O)[C@@H](O)CN2CC[C@H](O)[C@H]12` [SGD-1960, castanospermine, reference compound], the activity at 100 µM in experiment [2] is 300%.

In the case of `O=C1O[C@H]([C@@H](O)CO)[C@@H](O)[C@@H]1O` [SGD-1931, L-galactono-1,4-lactone], the activity at 100 µM in experiment [2] worked out at 81%.

For the compound “alkynyl fucose tetraisonicotinate [SGD-2058]”, in experiment [1], the “Inhibition at 50 μM” value is reported as over 80% and the “Inhibition at 1 mM” value was over 80%. In addition, the “% of control fucosylated IgG value” in experiment [2] is 34 % of control.

With `C#CC1OC(OC(=O)C(C)(C)C)C(O)C(OC(=O)C(C)(C)C)C1O` (centres unmarked) [Alkynyl fucose di(trimethylacetate), 5-ethynylarabinose 1,3-(trimethylacetate)], in experiment [1], the “Inhibition at 50 μM” value was over 80%.

As for `CC(=O)O[C@@H]([C@@H](C=O)OC(C)=O)[C@H](OC(C)=O)C(C)(C)OC(C)=O` [SGD-1964, 5-methylketo fucose tetraacetate], in experiment [2], the “inhibition of IgG fucosylation in human cells (decrease in AOL signal, dot blot)” value (“inhibition … (decrease in AOL signal, dot blot)” for short) is listed as “potentially strong inhibitors”; the activity at 100 µM turned out to be 5%; the “dot blot results (% fucose signal of control)” value is 5 % fucose signal of control.

Consider `CC(=O)OC1O[C@@H](C(C)C)[C@@H](OC(C)=O)[C@@H](OC(C)=O)[C@@H]1OC(C)=O` (stereo partly drawn) [SGD-1977, (3S,4R,5R,6S)-6-isopropyltetrahydro-2H-pyran-2,3,4,5-tetrayl tetraacetate], for which the activity at 100 µM in experiment [2] was 79%.

As for `CCC(=O)[C@H](OC(C)=O)[C@@H](OC(C)=O)[C@@H](OC(C)=O)[C@@H](C=O)OC(C)=O` [SGD-2067, 6-keto-6-ethyl fucose tetraacetate], in experiment [2], the “inhibition … (decrease in AOL signal, dot blot)” value was “potentially strong inhibitors”; the activity at 100 µM is 3%; the “dot blot results (% fucose signal of control)” value is listed as 3 % fucose signal of control.

Turning to `CC(=O)OC1CC(OC(C)=O)C(OC(C)=O)C(C)O1` (centres unmarked) [SGD-2108, 6-methyl-tetrahydro-2H-pyran-2,4,5-triyl triacetate], the Inhibition at 50 μM in experiment [1] (setting [4]) was determined as 0%. In addition, the activity at 100 µM in experiment [2] came out at 104%.

With `C#C[C@@H]1OC(OC(=O)CC)[C@@H](OC(=O)CC)[C@H](OC(=O)CC)[C@@H]1OC(=O)CC` (some centres unmarked) [SGD-2010, 5-ethynylarabinose tetrapropropanoate], in experiment [1], the “Inhibition at 50 μM” value was over 80% and the “Inhibition at 1 mM” value was over 80%. In experiment [2], the “% of control fucosylated IgG value” is given as 1.5 % of control and the “inhibition … (decrease in AOL signal, dot blot)” value is on record as “potentially strong inhibitors”.

For `CC(=O)OC(CCC#N)[C@@H](OC(C)=O)[C@@H](OC(C)=O)[C@@H](C=O)OC(C)=O` (some centres unmarked) [SGD-2070, 5-(2-cyanoethyl)arabinose tetraacetate], the activity at 100 µM in experiment [2] was determined as 51%.

For the compound `CC(=O)OC1C(C)OC(OC(C)=O)C(F)(F)C1OC(C)=O` (stereo not drawn) [2-deoxy-2,2-difluorofucopyranose triacetate (alpha)], in experiment [1], the “Inhibition at 50 μM” value came out at 0% and the “Inhibition at 1 mM” value is given as 64%.

Consider “6-alkyne-6-acetoxy fucose tetraacetate [SGD-2004]”, for which, in experiment [2], the “% of control fucosylated IgG value” is recorded as 29 % of control.

“1-methyl alkynyl fucose triacetate [SGD-2059]”: in experiment [1], the “Inhibition at 50 μM” value worked out at 68% and the “Inhibition at 1 mM” value is listed as over 80%. Further, the “% of control fucosylated IgG value” in experiment [2] is 89 % of control.

With “5-carboxamido fucose tetraacetate [SGD-1995]”, the “% of control fucosylated IgG value” in experiment [2] is on record as 79 % of control.

`C[C@H](O)[C@@H](O)[C@@H](O)[C@@H](O)C=O` [SGD-2113, 6-deoxy-L-talose]: the activity at 100 µM in experiment [2] was determined as 93%.

Regarding “alkynyl fucose tetranicotinate [SGD-2047]”, in experiment [1], the “Inhibition at 50 μM” value is over 80% and the “Inhibition at 1 mM” value was over 80%. For the same compound, in experiment [2], the “% of control fucosylated IgG value” is 50 % of control.

For `CC(=O)OC1C=COC(C)C1OC(C)=O` (centres unmarked) [SGD-2080, 1,2-dideoxy-1,2-dehydro fucose diacetate], in experiment [2], the “% of control fucosylated IgG value” was 159 % of control.

With `C#CC(OC(=O)CCCCC)[C@@H](OC(=O)CCCCC)[C@@H](OC(=O)CCCCC)[C@@H](C=O)OC(=O)CCCCC` (some centres unmarked) [SGD-2012, 5-ethynylarabinose tetrahexanoate], in experiment [1] (setting [4]), the Inhibition at 50 μM is over 80%. Also, in experiment [1] (CHO-DG44, 120 h), the inhibition at 1000 µM was over 80%. The activity at 100 µM in experiment [2] came out at 67%.

In the case of 5-epoxy fucose tetraacetate [SGD-2020], in experiment [2], the “% of control fucosylated IgG value” is 5 % of control; the “inhibition … (decrease in AOL signal, dot blot)” value is recorded as “potentially strong inhibitors”; the “dot blot results (% fucose signal of control)” value was 5 % fucose signal of control.

Turning to `CC(=O)OC1COC(C)C(OC(C)=O)C1OC(C)=O` (centres unmarked) [SGD-2081, 1-deoxy fucose triacetate], in experiment [2], the “% of control fucosylated IgG value” is recorded as 70 % of control.

As to `CC(=O)OC1C(C)OC(OC(C)=O)C(F)(F)C1OC(C)=O` (stereo not drawn) [2-deoxy-2,2-difluorofucopyranose triacetate (beta)], in experiment [1], the “Inhibition at 50 μM” value is reported as 0% and the “Inhibition at 1 mM” value is given as 75%.

Turning to `O=C[C@H](O)[C@@H](O)[C@@H](O)[C@H](O)CS` [SGD-2025, 6-thio galactose pentaacetate], the activity at 100 µM in experiment [2] was found to be 44%.

In the case of `CO[C@@H]1O[C@@H](C)[C@@H](O)[C@@H](O)[C@@H]1O` [SGD-1932, Methyl a-L-fucopyranoside], the “% of control fucosylated IgG value” in experiment [2] is recorded as 87 % of control.

Consider `COC(=O)[C@@H]1OC(OC(C)=O)[C@@H](OC(C)=O)[C@H](OC(C)=O)[C@@H]1OC(C)=O` (some centres unmarked) [SGD-2061, 6-carboxymethyl ester fucose tetraacetate], for which the “% of control fucosylated IgG value” in experiment [2] is 71 % of control.

Turning to `CC(=O)OC(C#N)[C@H]1OC(OC(C)=O)[C@@H](OC(C)=O)[C@@H]1OC(C)=O` (some centres unmarked) [5-cyanoarabinofuranose tetraacetate], in experiment [1] (setting [3]), the Inhibition at 50 μM lay in the range of 5 to 10%.

On to “alkynyl fucose tetraisobutanoate [SGD-2043]”, for which, in experiment [1], the “Inhibition at 50 μM” value is on record as over 80% and the “Inhibition at 1 mM” value is on record as over 80%. Moreover, the “% of control fucosylated IgG value” in experiment [2] is 34 % of control.

In the case of `C#CCNC[C@H](O)[C@@H](O)[C@@H](O)[C@H](O)C=O` [SGD-1950, 6-propargylamino fucose], in experiment [2], the activity at 100 µM was found to be 40%.

Consider `CC(=O)OC[C@@H](OC(C)=O)[C@H](OC(C)=O)[C@H](OC(C)=O)[C@H](C=O)OC(C)=O` [SGD-2074, D-galactose pentaacetate], for which the activity at 100 µM in experiment [2] stood at 118%.

In the case of `C#CC1OC(OC(=O)C(C)(C)C)C(OC(=O)C(C)(C)C)C(OC(=O)C(C)(C)C)C1O` (centres unmarked) [Alkynyl fucose 1,2,3-(trimethylacetate), 5-ethynylarabinose 1,2,3-(trimethylacetate)], the “Inhibition at 50 μM” value in experiment [1] is listed as about 0%.

With `CC(=O)OC1OC(C#N)[C@@H](OC(C)=O)[C@@H](OC(C)=O)[C@@H]1OC(C)=O` (some centres unmarked) [5-cyanoarabinopyranose tetraacetate], the Inhibition at 50 μM in experiment [1] (setting [3]) was 20%.

For the compound `CC(=O)OC1OC(CCl)[C@@H](OC(C)=O)[C@@H](OC(C)=O)[C@@H]1OC(C)=O` (stereo partly drawn) [6-chloro-fucose tetraacetate, (3S,4R,5S)-6-(chloromethyl)tetrahydro-2H-pyran-2,3,4,5-tetrayl tetraacetate], in experiment [1] (setting [4]), the Inhibition at 50 μM is 20%. For the same compound, the inhibition at 1000 µM in experiment [1] (CHO-DG44, 120 h) is 20 to 30%.

Take `CC(=O)OC1OC(CI)[C@@H](OC(C)=O)[C@@H](OC(C)=O)[C@@H]1OC(C)=O` (stereo partly drawn) [6-iodo-fucose tetraacetate, (3S,4R,5S)-6-(iodomethyl)tetrahydro-2H-pyran-2,3,4,5-tetrayl tetraacetate]: the Inhibition at 50 μM in experiment [1] (setting [4]) stood at 3%. Further, in experiment [1] (CHO-DG44, 120 h), the inhibition at 1000 µM worked out at 30%.

The record behind these values is US9504702B2, “Methods of inhibition of protein fucosylation in vivo using fucose analogs” (Seattle Genetics, Inc., priority 2010, dated 2016).
